Source: ChEMBL document CHEMBL1275471, “ISEcp1-mediated transposition of qnrB-like gene in Escherichia coli” (2008)
Values after ≈ are worked out from the molar mass of the structure shown.

Assays:
Type in all cases: functional
[1] = tested on: Escherichia coli; assay: Antimicrobial activity against Escherichia coli J53 transconjugate by CLSI method
[2] = tested on: Escherichia coli; assay: Antimicrobial activity against azide-resistant Escherichia coli J53 by CLSI method
[3] = tested on: Escherichia coli; assay: Antimicrobial activity against Escherichia coli R4525 expressing gyrA S83L and D87Y and parC S80I and E84G mutant gene by CLSI method

`CCN1CCN(c2cc3c(cc2F)c(=O)c(C(=O)O)cn3C2CC2)CC1` [ENROFLOXACIN] showed an MIC [1] of 0.5 µg/mL (≈ 1.39 µM), an MIC [2] of 0.01 µg/mL (≈ 0.0278 µM) and an MIC [3] of over 32 µg/mL.

`CCn1cc(C(=O)O)c(=O)c2ccc(C)nc21` [NALIDIXIC ACID] was tested, and the MIC [1] was 32 µg/mL (≈ 138 µM), the MIC [2] was 4 µg/mL (≈ 17.2 µM) and the MIC [3] was over 256 µg/mL.

With `CCn1cc(C(=O)O)c(=O)c2cc(F)c(N3CCNCC3)cc21` [NORFLOXACIN] the MIC [1] was 1 µg/mL (≈ 3.13 µM), the MIC [2] was 0.12 µg/mL (≈ 0.376 µM) and the MIC [3] was over 256 µg/mL.

Work on `CC1COc2c(N3CCN(C)CC3)c(F)cc3c(=O)c(C(=O)O)cn1c23` (stereo not drawn) [OFLOXACIN] yielded an MIC [3] of over 32 µg/mL.

`C[C@@H]1CN(c2c(F)c(N)c3c(=O)c(C(=O)O)cn(C4CC4)c3c2F)C[C@H](C)N1` [SPARFLOXACIN] gave an MIC [1] of 1 µg/mL (≈ 2.55 µM), an MIC [2] of 0.01 µg/mL (≈ 0.0255 µM) and an MIC [3] of over 32 µg/mL.
